Results on five compounds are retold here after patent US5538834A, “Blocked photographically useful compounds for use with peroxide-containing processes” (Eastman Kodak Company, priority 1994, dated 1996).

What all share (format): physicochemical
Series [1] is described as follows: Thermal stability: retained blocked developing agent by HPLC after incubation (Examples 3-5). The conditions noted are these: 1 week at 100° F. and 50% relative humidity, 10080 min. The method, then:
Blocked p-phenylenediamine developing agents 1, 3 and 6 were incorporated in photographic elements and evaluated for image dye formation activity and stability under storage conditions. The photographic elements were prepared as follows. The developing agents were dissolved in a high vapor pressure organic solvent (ethyl acetate for compounds 1 and 6, cyclohexanone for compound 3). The solutions were subsequently emulsified in aqueous gelatin using Alkanol-XC (Du Pont) as a dispersing aid. The dispersions were formulated such that the developing agents were initially present at 3% by weight, gelatin at 4% by weight and Alkanol-XC at 0.4% by weight. The initial slurries were emulsified by passing the mixtures through a colloid mill using known procedures. The organic solvents were then removed by evaporation.
Sets of strips were incubated for 1 week at 100° F. and 50% relativ humidity, and then evaluated by high performance liquid chromatography for amount of retained blocked developing agent. Sensitometry was obtained for step-tablet white-light exposures by contacting the strips with an activator solution at 77° F. The activator solution had the following composition:
The imaging activity and thermal stability of the exemplary blocked developing agents are given in Table V. The thermal stability denotes the percent retention, that is, the relative amount of blocked developing agent remaining after incubation, relative to the amount of developing agent initially coated.

Series [2] is described as follows: Ester cleavage rate in solution without and with hydrogen peroxide (Example 1). The conditions noted are these: pH 10 solution, 25° C., 5% CH3CN aqueous solution.
Protocol: ^a 5% CH3 CN aqueous solution
nonionic surfactant micellar solution
^c pH 10 solution, 25° C.
Series [3] is described as follows: Accelerated keeping test of coatings, raw stock stability (Example 2). As to conditions: 2 weeks at 50° C. and 50% relative humidity; 20160 min. The text has this:
Coatings containing compound 32 as described above were also subjected to accelerated keeping tests to determine raw stock stability.

A short description of series [4]: Deblocking / dye release from ballasted blocked filter dye coating in alkaline buffer flow cell (Example 2). As to conditions: for % reaction after 400 sec.: 6.66667 min. The method, then: DOC Gelatin (2700 mg/m^2)
FILTER DYE LAYER Gelatin (3780 mg/m^2)
bis(vinylsulfonylmethyl)ether
FILMBASE polyacetate-butyrate
Coating strips were suspended in a flow cell while alkaline buffer solutions at 40° C. were passed through it. As deblocking proceeded, the yellow color of the strips was reduced as the water-solublefilter dye was released and washed out of the film.

As to `CCN(CCNS(C)(=O)=O)c1ccc(NC(=O)OCc2ccc(OC(=O)C(C)(C)C)c(NS(C)(=O)=O)c2)c(C)c1` [compound 1], the Retention in series [1] amounted to 100%.
On the same count and under the same terms, next, `CCN(CCNS(C)(=O)=O)c1ccc(NC(=O)OCc2ccc(OC(=O)C(C)C)c(NC(=O)CCCC(=O)O)c2)c(C)c1` [compound 3]: 98%.
Turning to `CC(C)(C)C(=O)Oc1ccc([N+](=O)[O-])cc1` [p-nitrophenyl pivalate], the “t1/2, 0.1M H2O2” value in series [2] (0.1M H2O2) amounted to 0.0113 min. Moreover, in series [2] (no H2O2), the “t1/2, no H2O2” value is 95 min.
In the case of `CCC(=O)Oc1ccc(COC(=O)Nc2ccc(N(CC)CCNS(C)(=O)=O)cc2C)cc1NC(=O)c1ccc(NS(C)(=O)=O)cc1` [compound 6], in series [1], the Retention was determined as 100%.
With `CCCCCCCCCCCCCCCCS(=O)(=O)Nc1ccc(C(=O)Nc2cc(COC(=O)Nc3cc(N(C)C)ccc3N=Nc3cccc(C(=O)O)c3)ccc2OC(=O)CC)cc1` [compound 32], the recovery after storage entry in series [3] was “greater than 93%”. Also, the t1/2 is 3.67 min in series [4] (pH 10, 0.2 N H2O2, 40° C.); “very long” in series [4] (pH 10, no H2O2, 40° C.); 1.17 min in series [4] (pH 10.7, 0.2 N H2O2, 40° C.); 13 min in series [4] (pH 10.7, no H2O2, 40° C.). Further, the “% reaction after 400 sec.” value in series [4] (pH 10, 0.2 N H2O2, 40° C.) worked out at 77%; in series [4] (pH 10, no H2O2, 40° C.) it was 3%; in series [4] (pH 10.7, 0.2 N H2O2, 40° C.), 100%; in series [4] (pH 10.7, no H2O2, 40° C.) it was 31%.
